The assay deals with Plasmodium berghei. The experiment in a line: Luciferase/luciferin-expressing antifolate-resistant parasites were used to infect a culture of HepG2 cells that were pre-incubated with compounds. Infected hepatocytes emit light due to the luciferase reaction. Assay results are presented as the percent inhibition of light emission compared to control. […]. It counts as functional. The settings on record: sporozoite; for IC90: read-out: LUCIFERASE INFECTION ASSAY - IC90.

Where [1] appears, read: read-out: LUCIFERASE INFECTION ASSAY - IC50.

The results in this text go back to ChEMBL document CHEMBL4483862, “Open-source discovery of chemical leads for next-generation chemoprotective antimalarials” (2018).

SMILES strings stand for the structures. pIC50: −log10 of the molar value.

By pIC50 is commonly meant the IC50 on a negative log10 scale, so that one unit is a factor of ten. Usually IC90 stands for the concentration at which the effect reaches the 90% level.

`O=C(NC1CCCC1)c1ccc(-c2cn3c(-c4ccc5ncccc5c4)cnc3cn2)cc1`: the concentration for an effect of 90% (IC90) was greater than 7.61 µM. Besides, under setting [1], the negative-log IC50 (pIC50) was less than 5.12. `Brc1ccc(Nn2c(-c3ccccc3)nc3c2C2C=CC=CC2C=N3)cc1` (configuration not stated): the 90% effect concentration (IC90) was found to be 5.07 µM. Also, the pIC50 under setting [1] is 5.44. On to `COc1ccc(-c2csc3ncnc(NC(C)c4ccc(Cl)cc4Cl)c23)cc1` (configuration not stated), for which the concentration for an effect of 90% (IC90) is greater than 10 µM. Moreover, the pIC50 under setting [1] was less than 5.00.

`COc1cc(/C=C2\C(=O)c3ccccc3S(=O)(=O)N2C(C)C)ccc1O`: the 90% effect concentration (IC90) is 2.85 µM. Also, the pIC50 (FFLUC_HILL_SLOPE 10, FFLUC_R_SQUARED 0.0898, HEPG2TOX_HILL_SLOPE 4.33, HEPG2TOX_R_SQUARED 0.977, PBLUC_HILL_SLOPE 2.02, PBLUC_R_SQUARED 0.77, read-out: LUCIFERASE INFECTION ASSAY - IC50) is 6.02. With `CCCCCc1c(C)nc(-c2ccccn2)nc1O`, the concentration for an effect of 90% (IC90) was greater than 12.8 µM. In addition, the pIC50 under setting [1] was less than 4.89.

For the compound `CNc1nc2cnc(Nc3cccc(C)c3)cc2n1-c1cccc(C(F)(F)F)c1`, the IC90 was greater than 10 µM. Further, the pIC50 (HEPG2TOX_HILL_SLOPE 1.54, HEPG2TOX_R_SQUARED 0.691, PBLUC_HILL_SLOPE 2.02, PBLUC_R_SQUARED 0.694, read-out: LUCIFERASE INFECTION ASSAY - IC50) is 5.37.

`c1ccc(-c2ncc(CSc3ncnc4sccc34)s2)cc1`: the IC90 was greater than 10 µM. Under setting [1], the negative logarithm of the IC50 (pIC50) is less than 5.00. In the case of `COc1ccccc1/C=C(/CC(=O)NCc1ccc2c(c1)OCO2)c1nc2ccccc2s1`, the concentration for an effect of 90% (IC90) was greater than 10 µM. For the same compound, the pIC50 under setting [1] is less than 5.00. As for `CCc1cccc2c(/C=C(\C#N)C(=O)C(C)(C)C)c[nH]c12`, the concentration for an effect of 90% (IC90) is greater than 10 µM. For the setting “PBLUC_HILL_SLOPE 0.872, PBLUC_R_SQUARED 0.606, read-out: LUCIFERASE INFECTION ASSAY - IC50”, the pIC50 is 5.20. For `CCn1nc(C)c(Br)c1C(=O)Sc1ccccc1Cl`, the IC90 is greater than 9.17 µM. Also, the negative logarithm of the IC50 (pIC50) (FFLUC_HILL_SLOPE 17.2, FFLUC_R_SQUARED 0.444, read-out: LUCIFERASE INFECTION ASSAY - IC50) is less than 5.04. Regarding `CNC(=O)c1ccc(S(=O)(=O)Nc2cccc(-c3nnnn3C)c2)cc1`, the IC90 was greater than 10 µM. Moreover, the negative logarithm of the IC50 (pIC50) under setting [1] is less than 5.00. For `c1ccc(C(Sc2ncnc3sccc23)c2ccccc2)cc1` the same measures were greater than 10 µM and less than 5.00. With `CN(C)c1ccc(S(N)(=O)=O)cc1NC(=O)Cc1ccc(-c2ccccc2)cc1`, the concentration for an effect of 90% (IC90) is greater than 10 µM. For the same compound, the pIC50 (PBLUC_HILL_SLOPE 2.92, PBLUC_R_SQUARED 0.577, read-out: LUCIFERASE INFECTION ASSAY - IC50) was 5.27.

Regarding `CCCn1c(NC(=O)C2CCN(c3ccc4nnc(C(F)(F)F)n4n3)CC2)nc2ccccc21`, the 90% effect concentration (IC90) is greater than 10 µM. In addition, the pIC50 under setting [1] was 5.19. With `CSc1ncc(C(=O)OCc2cc(F)cc3c2OCOC3)n1-c1ccc(F)cc1`, the concentration for an effect of 90% (IC90) is greater than 10 µM. Also, for the setting “PBLUC_HILL_SLOPE 2.14, PBLUC_R_SQUARED 0.0712, read-out: LUCIFERASE INFECTION ASSAY - IC50”, the pIC50 was 5.29.

Regarding `OCc1cccc(-c2ccc3ncc(-c4cccs4)n3n2)c1`, the 90% effect concentration (IC90) came to 4.05 µM. The pIC50 (HEPG2TOX_HILL_SLOPE 1.03, HEPG2TOX_R_SQUARED 0.934, PBLUC_HILL_SLOPE 12.1, PBLUC_R_SQUARED 0.638, read-out: LUCIFERASE INFECTION ASSAY - IC50) is 5.47. Consider `CC1(C)C=Cc2cc(C(=N)NOC(=O)c3cccs3)ccc2O1`, for which the 90% effect concentration (IC90) came out at 0.21 µM.

Regarding `Cc1cc(NC(=O)N2CCN(Cc3ccc(-c4ccccc4Cl)s3)CC2)no1`, the IC90 is greater than 10 µM. For the same compound, the negative logarithm of the IC50 (pIC50) (HEPG2TOX_HILL_SLOPE 17.1, HEPG2TOX_R_SQUARED 0.65, PBLUC_HILL_SLOPE 0.759, PBLUC_R_SQUARED 0.724, read-out: LUCIFERASE INFECTION ASSAY - IC50) was 5.92. As for `CC(C(OC(=O)c1ccc(S(=O)(=O)N(C)C)cc1)c1ccccc1)N(C)S(=O)(=O)c1ccc(Cl)cc1` (configuration not stated), the 90% effect concentration (IC90) was greater than 10 µM. Also, the negative-log IC50 (pIC50) (FFLUC_HILL_SLOPE 14.7, FFLUC_R_SQUARED 0.389, PBLUC_HILL_SLOPE 2.36, PBLUC_R_SQUARED 0.776, read-out: LUCIFERASE INFECTION ASSAY - IC50) is 5.14. `NC(=O)NC(CC(=O)NCc1cccs1)c1cccc(Oc2ccccc2)c1` (configuration not stated): the concentration for an effect of 90% (IC90) is greater than 10 µM. The negative logarithm of the IC50 (pIC50) (FFLUC_HILL_SLOPE 0.589, FFLUC_R_SQUARED 0.0522, PBLUC_HILL_SLOPE 12.1, PBLUC_R_SQUARED 0.469, read-out: LUCIFERASE INFECTION ASSAY - IC50) is 5.03. For `Oc1c(Cn2c(=S)sc3ccccc32)cc(Cl)c2cccnc12`, the concentration for an effect of 90% (IC90) is 1.24 µM. Moreover, for the setting “FFLUC_HILL_SLOPE 19.2, FFLUC_R_SQUARED 0.535, HEPG2TOX_HILL_SLOPE 1.74, 1.21, HEPG2TOX_R_SQUARED 0.199, 0.803, PBLUC_HILL_SLOPE 4.66, PBLUC_R_SQUARED 0.802, read-out: LUCIFERASE INFECTION ASSAY - IC50”, the negative-log IC50 (pIC50) was 6.11.

In the case of `C=CCNC(=O)CN(c1ccc(Br)cc1)S(C)(=O)=O`, the IC90 is greater than 9.5 µM. Moreover, the negative-log IC50 (pIC50) under setting [1] is less than 5.02. For `COc1ccc2c(C)cc(SCc3nc(=O)c4c(-c5ccc(Cl)cc5)csc4[nH]3)nc2c1`, the IC90 is greater than 10 µM. Moreover, the pIC50 under setting [1] is less than 5.00. In the case of `Cc1cc(C(=O)COC(=O)c2ccccc2C(F)(F)F)c(C)n1Cc1ccccc1Cl`, the 90% effect concentration (IC90) was determined as 3.52 µM. In addition, the pIC50 (HEPG2TOX_HILL_SLOPE 0.164, HEPG2TOX_R_SQUARED 0.816, PBLUC_HILL_SLOPE 1.63, 0.884, PBLUC_R_SQUARED 0.848, 0.800, read-out: LUCIFERASE INFECTION ASSAY - IC50) was 6.16.

In the case of `CC(C)c1ccc(C2C3CCc4ccccc4C3=NN2CCO)cc1` (configuration not stated), the IC90 is 1.32 µM. Moreover, for the setting “PBLUC_HILL_SLOPE 1.49, PBLUC_R_SQUARED 0.685, read-out: LUCIFERASE INFECTION ASSAY - IC50”, the negative-log IC50 (pIC50) is 6.52. As to `COc1cccc(C2=NN(C(=O)c3ccco3)C(c3ccccc3O)C2)c1` (configuration not stated), the concentration for an effect of 90% (IC90) came to 8.57 µM. Moreover, under “HEPG2TOX_HILL_SLOPE 15.7, HEPG2TOX_R_SQUARED 0.922, PBLUC_HILL_SLOPE 21, PBLUC_R_SQUARED 0.659, read-out: LUCIFERASE INFECTION ASSAY - IC50”, the pIC50 was 5.11. On to `O=C(c1ccccc1)C1CCN(C(=O)/C=C/c2cccc(Cl)c2Cl)CC1`, for which the IC90 was greater than 10 µM. In addition, the negative-log IC50 (pIC50) (PBLUC_HILL_SLOPE 1.75, PBLUC_R_SQUARED 0.122, read-out: LUCIFERASE INFECTION ASSAY - IC50) is less than 5.00.

As for `N#C/C(=C\Nc1cccc([N+](=O)[O-])c1)S(=O)(=O)c1ccc(Cl)cc1`, the IC90 is greater than 9.07 µM. Moreover, under setting [1], the pIC50 is less than 5.04. With `CCOC(=O)c1cc(C#N)c(C)nc1Sc1ccccc1NC(=O)Nc1ccc(SC(F)(F)F)cc1`, the IC90 is greater than 6.2 µM. Besides, the pIC50 under setting [1] was less than 5.21. Turning to `c1cncc(-c2ccc3ncc(-c4cccnc4)n3n2)c1`, the IC90 stood at 2.92 µM. In addition, the pIC50 (HEPG2TOX_HILL_SLOPE 1.17, HEPG2TOX_R_SQUARED 0.949, PBLUC_HILL_SLOPE 1.66, PBLUC_R_SQUARED 0.633, read-out: LUCIFERASE INFECTION ASSAY - IC50) was 6.11.

Regarding `Cc1cc(C(=O)CSc2nnc3n2CCCCC3)c(C)n1-c1ccccc1`, the concentration for an effect of 90% (IC90) was greater than 10 µM. The negative-log IC50 (pIC50) (FFLUC_HILL_SLOPE 0.849, FFLUC_R_SQUARED 0.0339, PBLUC_HILL_SLOPE 12.7, PBLUC_R_SQUARED 0.127, read-out: LUCIFERASE INFECTION ASSAY - IC50) was 5.03. For `NC(=O)C(C(=O)/C=C/c1ccc(Cl)cc1)=C1SCCS1`, the 90% effect concentration (IC90) was determined as 7.51 µM. Besides, the pIC50 (HEPG2TOX_HILL_SLOPE 2.58, HEPG2TOX_R_SQUARED 0.837, PBLUC_HILL_SLOPE 4.23, PBLUC_R_SQUARED 0.508, read-out: LUCIFERASE INFECTION ASSAY - IC50) was 5.35.

As to `CCN1CCN(c2ccc(S(=O)(=O)N3CCOCC3)cc2NC(=O)/C=C/c2ccc([N+](=O)[O-])cc2)CC1`, the 90% effect concentration (IC90) is greater than 10 µM. Besides, the pIC50 (PBLUC_HILL_SLOPE 11, PBLUC_R_SQUARED 0.478, read-out: LUCIFERASE INFECTION ASSAY - IC50) was 5.08.

Take `OCc1ccc(-c2cnc3cnc(/C=C/c4ccccc4)cn23)cc1`: the concentration for an effect of 90% (IC90) was determined as 0.659 µM. Also, the pIC50 (HEPG2TOX_HILL_SLOPE 0.99, HEPG2TOX_R_SQUARED 0.698, PBLUC_HILL_SLOPE 2.37, PBLUC_R_SQUARED 0.796, read-out: LUCIFERASE INFECTION ASSAY - IC50) was 6.58. Turning to `Clc1ccc2c(NCc3ccc(N4CCOCC4)nc3)ncnc2c1`, the 90% effect concentration (IC90) was greater than 10 µM. The negative-log IC50 (pIC50) under setting [1] is less than 5.00. Regarding `CN(C)c1nc(N)c2c(N)nc3c(cc(O)n3C(=O)NC34CC5CC(CC(C5)C3)C4)c2c1C#N`, the 90% effect concentration (IC90) was greater than 10 µM. The pIC50 under setting [1] is 5.25. `CC(C)CN(C(=O)COC(=O)/C=C/c1nc2ccccc2s1)c1c(N)n(Cc2ccccc2)c(=O)[nH]c1=O`: the concentration for an effect of 90% (IC90) came out at 3.98 µM. Besides, the pIC50 under setting [1] was 5.46. Consider `CC(C)[C@H](Nc1ccc(C(F)(F)F)cc1Cl)C(=O)Nc1ccc(C#N)cc1`, for which the IC90 was 3.14 µM. In addition, the pIC50 (HEPG2TOX_HILL_SLOPE 3.39, HEPG2TOX_R_SQUARED 0.849, PBLUC_HILL_SLOPE 25.1, 22.4, PBLUC_R_SQUARED 0.626, 0.774, read-out: LUCIFERASE INFECTION ASSAY - IC50) is 5.54. Take `CCCOc1c(/C=C/C(=O)c2ccc(OCC#N)cc2)cccc1OCC`: the concentration for an effect of 90% (IC90) worked out at 9.68 µM. Moreover, where the note is “PBLUC_HILL_SLOPE 10.6, PBLUC_R_SQUARED 0.425, read-out: LUCIFERASE INFECTION ASSAY - IC50”, the negative logarithm of the IC50 (pIC50) is 5.10.
